Data: patent publication US20230210864A1, “AGENT FOR PROMOTING CORNEAL ENDOTHELIAL CELL ADHESION” (Senju Pharmaceutical Co., Ltd., priority 2007, published 2023)

Tested on: monkey corneal endothelial cells
Assay: Adhesion of cultured monkey corneal endothelial cells with fasudil, CellTiter-Glo Luminescent Cell Viability Assay
Assay type: cell-based, Macaca fascicularis
Settings: fasudil 10 μM, passage-cultured cells
Description: From the corneal tissue isolated from Macaca fascicularis euthanized, Descemet's membrane with corneal endothelial cells attached thereto was separated. The Descemet's membrane was incubated together with Dispase II (1.2 U/ml, Roche Applied Science) under the conditions of 37° C., 5% CO2 for 45 min, and the corneal endothelial cells were mechanically separated by a pipetting operation. The separated corneal endothelial cells were centrifuged and passage-cultured in a medium for corneal endothelium. As the medium for corneal endothelium, the same cell culture medium as in Example 1 was used. The cultured monkey corneal endothelial cells collected during the passage culture by a 0.05% trypsin treatment were separated and centrifuged, and stirred to the same concentration in a medium for corneal endothelium added with fasudil (10 μM, SIGMA-ALDRICH) in the fasudil group and in a medium for corneal endothelium without addition of fasudil in the control group, and the cells were seeded on a 96 well plate at a density of about 2000 cells per well. At 24 hr from the start of the culture, the adhered cells were counted using CellTiter-Glo (registered trade mark) Luminescent Cell Viability Assay (Promega) (FIG. 17).

O=S(=O)(c1cccc2cnccc12)N1CCCNCC1 [fasudil, 1-(5-isoquinolinesulfonyl)homopiperazine]
cell adhesion of corneal endothelial cells at 24 hr, compared to control group: effect of promoted cell adhesion of the corneal endothelial cells was also found
